Reference: patent US4323581A, “Method of treating carcinogenesis” (priority 1978, dated 1982)

Columns and labels:
[1] = test system: chemical carcinogenesis; conditions: in vivo; cited from earlier work
[2] = test system: breast cancer; conditions: in vivo; cited from earlier work
[3] = cited from earlier work; for toxicity at high dosage levels: higher mammals
[4] = test system: tracheal epithelium; assay: Reversal of keratinized squamous metaplastic lesions of vitamin A deficiency in tracheal organ culture; format: cell-based; conditions: collected day 10; for % of Cultures with Respective Amounts of Squamous Metaplasia: Marked: marked = 10-40% squamous; for % of Cultures with Respective Amounts of Squamous Metaplasia: Mild: mild = 2-10% squamous; for % of Cultures with Respective Amounts of Squamous Metaplasia: Minimal: minimal = less than 2% squamous; for % of Cultures with Respective Amounts of Squamous Metaplasia: Severe: severe = more than 40% squamous
Text: N-(4-hydroxyphenyl)-all-trans-retinamide was compared with retinoic acid in an in vitro screening model for identifying retinoids having activity in preventing carcinogenesis in epithelial tissue. The experimental method, which is described in Experimental Lung Cancer:Intern'l Symp, 575-82, 1974, involves reversal of keratinization in tracheal organ culture.
In brief summary, in the absence of retinoic acid or a synthetic retinoid having similar activity, the test organ culture of tracheal epithelium undergoes abnormal differentiation. Addition of small concentrations of retinoic acid (as low as 10^-9 M) will cause reversion to normal tracheal epithelium. Test compounds are compared in activity to retinoic acid or another active standard both as regards squamous metaplasia and keratin production, both of which are measures of abnormal development of the epithelial culture.
In carrying out the tests reported in Table I, all tracheas were cultured for the first 3 days in medium without retinoid. At this time, some tracheas were collected, while the rest were cultured for a further week in medium containing either no retinoid, or retinoid added at the concentrations shown. These tracheas were collected on the 10th day of culture. Cultures were graded as to the percentage of their total epithelium showing squamous metaplasia on eight cross sections from the middle of each trachea. If more than 40% of the total epithelial length was squamous, it was graded as having severe squamous metaplasia; between 10-40% was graded as marked; between 2-10% was graded as mild; and less than 2% was graded as minimal.

[5] = test system: tracheal epithelium; conditions: small concentrations, as low as; cited from earlier work
[6] = test system: MNU-induced mammary cancer; assay: Inhibition of mammary carcinogenesis induced by N-methyl-N-nitrosourea (MNU), rat breast cancer; format: in vivo, Female Sprague-Dawley rats; conditions: Table II, 73 days
[7] = MNU high dose (50 mg/kg), 328 mg/kg diet
[8] = MNU high dose (50 mg/kg), 656 mg/kg diet
[9] = MNU low dose (15 mg/kg), 328 mg/kg diet
[10] = MNU low dose (15 mg/kg), 656 mg/kg diet

CC1=C(/C=C/C(C)=C/C=C/C(C)=C\C(=O)O)C(C)(C)CCC1 [13-cis-retinoic acid]
potency in preventing chemical carcinogenesis relative to retinoic acid or the natural retinyl esters [1]: more potent in preventing chemical carcinogenesis
effectiveness against breast cancer in the rat model [2]: has not been found to be particularly effective against breast cancer in the rat model
toxicity relative to retinoic acid or the natural retinyl esters ([3]; in vivo): considerably less toxic than retinoic acid or the natural retinyl esters

CC1=C(/C=C/C(C)=C/C=C/C(C)=C/C(=O)O)C(C)(C)CCC1 [Retinoic Acid, retinoic acid, reference compound]
% of Cultures with Keratin and Keratohyaline Granules ([4]; 10^-8 M): 0%
% of Cultures with Respective Amounts of Squamous Metaplasia: None ([4]; 10^-8 M): 27%
% of Cultures with Respective Amounts of Squamous Metaplasia: Marked ([4]; 10^-8 M): 0%
% of Cultures with Respective Amounts of Squamous Metaplasia: Mild ([4]; 10^-8 M): 23%
% of Cultures with Respective Amounts of Squamous Metaplasia: Minimal ([4]; 10^-8 M): 49%
% of Cultures with Respective Amounts of Squamous Metaplasia: Severe ([4]; 10^-8 M): 0%
% of Cultures with Keratin and Keratohyaline Granules ([4]; 10^-9 M): 3%
% of Cultures with Respective Amounts of Squamous Metaplasia: None ([4]; 10^-9 M): 16%
% of Cultures with Respective Amounts of Squamous Metaplasia: Marked ([4]; 10^-9 M): 12%
% of Cultures with Respective Amounts of Squamous Metaplasia: Mild ([4]; 10^-9 M): 32%
% of Cultures with Respective Amounts of Squamous Metaplasia: Minimal ([4]; 10^-9 M): 37%
% of Cultures with Respective Amounts of Squamous Metaplasia: Severe ([4]; 10^-9 M): 2%
% of Cultures with Keratin and Keratohyaline Granules ([4]; 10^-10 M): 32%
% of Cultures with Respective Amounts of Squamous Metaplasia: None ([4]; 10^-10 M): 9%
% of Cultures with Respective Amounts of Squamous Metaplasia: Marked ([4]; 10^-10 M): 17%
% of Cultures with Respective Amounts of Squamous Metaplasia: Mild ([4]; 10^-10 M): 43%
% of Cultures with Respective Amounts of Squamous Metaplasia: Minimal ([4]; 10^-10 M): 4%
% of Cultures with Respective Amounts of Squamous Metaplasia: Severe ([4]; 10^-10 M): 28%
lowest concentration causing reversion to normal tracheal epithelium [5]: 10^-9 M
toxicity at high dosage levels [3]: too toxic at high dosage levels to be of practical value for cancer prevention in higher mammals

CC(=O)OC/C=C(C)/C=C/C=C(C)/C=C/C1=C(C)CCCC1(C)C [Retinyl Acetate, retinyl acetate, reference compound]
Mammary Tumor Incidence [6, 7]: 5/19
Mammary Tumor Incidence (%) [6, 7]: 26%
Mammary Tumor Incidence [6, 8]: 4/17
Mammary Tumor Incidence (%) [6, 8]: 24%
Mammary Tumor Incidence [6, 9]: 0/39
Mammary Tumor Incidence (%) [6, 9]: 0%
Mammary Tumor Incidence [6, 10]: 0/40
Mammary Tumor Incidence (%) [6, 10]: 0%
Mammary Tumor Incidence ([6]; saline, 328 mg/kg diet): 0/10
Mammary Tumor Incidence (%) ([6]; saline, 328 mg/kg diet): 0%
Mammary Tumor Incidence ([6]; saline, 656 mg/kg diet): 0/10
Mammary Tumor Incidence (%) ([6]; saline, 656 mg/kg diet): 0%
toxicity at high dosage levels [3]: too toxic at high dosage levels to be of practical value for cancer prevention in higher mammals

CCCCCCCCCCCCCCCC(=O)OC/C=C(C)/C=C/C=C(C)/C=C/C1=C(C)CCCC1(C)C [retinyl palmitate]
toxicity at high dosage levels [3]: too toxic at high dosage levels to be of practical value for cancer prevention in higher mammals
